Test results taken from patent publication US12428455B2, “Dominant negative CEBPB and CEBPD proteins and methods of use for decreasing viability of neoplastic cells” (The Trustees of Columbia University in the City of New York, priority 2018, dated 2025).
No end group written: not given here.

What was measured:
A549 lung cancer cells = assay: Cell number after peptide treatment, A549; type: cell-based; conditions: 6 days, 0 μM to 50 μM; stock without BSA
Description: Replicate cultures of MDA-MB-468 breast cancer cells, A549 lung cancer cells and 293T transformed embryonic kidney cells were exposed to CP-DN-CEBPB or CP-DN-CEBPD, for 6 days at doses of 0 μM to 50 μM. […] Stock solutions of the peptides were prepared in buffer without added bovine serum albumin (BSA).

[1] = system: HIEC-6 non-cancer human intestinal epithelial cells; assay: Morphology after peptide treatment, HIEC-6; type: cell-based; conditions: 5 to 6 days, 20 μM or 50; stock without BSA
Description: Stock solutions of the peptides were prepared in buffer without added bovine serum albumin (BSA).

[2] = system: HIEC-6 non-cancer cell lines; assay: PI-Annexin staining and flow cytometry, HIEC-6; type: cell-based, human; conditions: 20 μM, 3 days
Description: MDA-MB-231, MCF7, HCT116 and T98G cancer cell lines and HIEC-6 non-cancer cell lines were treated for 3 days with 20 μM CP-dn-CEBPB and CP-dn-CEBPD peptides from stock solutions prepared without additives, followed by PI-Annexin staining and flow cytometry. Numbers in upper and lower quadrants indicate % of cells in early (lower) or late (upper) apoptotic phase.

T98G cells [3] = assay: Apoptotic nuclei, propidium iodide flow cytometry, T98G; type: cell-based; conditions: 20 μM, 3 days, vs untreated cells
Description: MDA-MB-231, MCF7, HCT116 and T98G cancer cell lines were treated for 3 days with 20 μM CP-dn-CEBPB and CP-dn-CEBPD peptides from stock solutions prepared without additives. Cultures were stained with propidium iodide and assessed for proportion of cells with apoptotic nuclei by flow cytometry.

T98G cells [4] = assay: Combination with gamma radiation, cell number, T98G; type: cell-based; conditions: 2 Gy or 5 Gy; peptide 0.05, 0.5 or 5 μM one day later, 6 days; CI<1 indicates synergism
Description: Replicate cultures of T98G and HCT116 cells were exposed to 2 Gy or 5 Gy of gamma radiation. One day later, the cultures were treated with 0.05 μM, 0.5 μM, or 5 μM CP-dn-CEBPB and CP-dn-CEBPD peptides, maintained for 6 days, and then assessed for cell number. The bar graphs of FIGS. 24A (T98G, CP-dn-CEBPB), 24C (T98G, CP-dn-CEBPBD, 24E (HCT116, CP-dn-CEBPD), and 24G (HCT116, CP-dn-CEBPD) show relative cell numbers for each condition as compared to untreated controls. The line graphs of FIGS. 24B (T98G, CP-dn-CEBPB), 24D (T98G, CP-dn-CEBPBD, 24F (HCT116, CP-dn-CEBPB), and 24H (HCT116, CP-dn-CEBPD) show the response as normalized in each case so that 100 represents the relative number of surviving cells that received the indicated level of radiation treatment, but no peptide treatment. Calculated Combination Indexes (CI) are T98G, CI=0.61±0.05 for CP-dn-CEBPB, 0.68±0.07 for CP-dn-CEBPD; HCT116, 0.89±0.04 for CP-dn-CEBPB, 0.86±0.05 for CP-dn-CEBPD. CI=1 indicates additivity; CI<1 indicates synergism; CI>1 indicates antagonism.

MDA-MB 231 cells = assay: Scratch migration assay, MDA-MB 231; type: cell-based; conditions: 20 hours, 20 μM or 40 μM
Description: (§1) Monolayers of MDA-MB 231 or T98G cells were subjected to formation of a scratch at 0 time and cultured for 20 hours in 20 μM or 40 μM CP-DN-CEBPB and CP-DN-CEBPD. Multiple images taken at 0 time and after 20 hours were analyzed for gap width of the scratches into which cells migrated or not. Example images for T98G are found in FIG. 22A, with compiled data for the T98G samples in FIG. 22B. Example images for MDA-MB 231 are found in FIG. 22C, with compiled data for the MDA-MB 231 samples in FIG. 22D.

T98G cells [5] = assay: Scratch migration assay, T98G; type: cell-based; conditions: 20 hours, 20 μM or 40 μM
Description: as §1

T98G cells [6] = assay: Combination with chloroquine, cell number, T98G; type: cell-based; conditions: 5 μM or 10 μM chloroquine and 3 μM or 10 μM peptide, 6 days
Description: Replicate cultures of T98G, MDA-MB 231, and HCT116 cells were treated with 5 μM or 10 μM chloroquine and 3 μM or 10 μM CP-dn-CEBPB and CP-dn-CEBPD peptides, maintained for 6 days, and then assessed for cell number. The bar graphs of FIGS. 29A (T98G, CP-dn-CEBPB), 29C (T98G, CP-dn-CEBPBD, 29E (MDA-MB-231, CP-dn-CEBPBD), 29G (MDA-MB-231, CP-dn-CEBPD), 29I (HCT116, CP-dn-CEBPBB), and 26K (HCT116, CP-dn-CEBPBD) show relative cell numbers for each condition as compared to untreated controls. The line graphs of FIGS. 26B (T98G, CP-dn-CEBPB), 26D (T98G, CP-dn-CEBPBD), 26F (MDA-MB-231, CP-dn-CEBPB), 26H (MDA-MB-231, CP-dn-CEBPD), 26J (HCT116, CP-dn-CEBPB), and 26L (HCT116 CP-dn-CEBPBD) show the response as normalized in each case so that 100 represents the relative number of surviving cells that received the indicated level of chloroquine, but no peptide treatment. The results ranged from near-additive (HCT116 cells, CI=0.92±0.08 for CP-dn-CEBPB and 0.87±0.07 for CP-dn-CEBPD) to apparent synergy (T98G, CI=0.56±0.06 for CP-dn-CEBPB and 0.75±0.03 for CP-dn-CEBPD; MDA-MB-261, CI=0.59±0.11 for CP-dn-CEBPB and 0.47±0.05 for CP-dn-CEBPD).

[7] = Solubility of peptide stock after dilution; type: physicochemical; conditions: 20 mM of each of arginine and glutamate added to peptide stock buffer
Description: In some implementations, the mixture of arg/glu may be added at a molarity of, or of about 5 mM, 10 mM, 15 mM, 20 mM, 25 mM, or 30 mM.

## RQIKIWFQNRRMKWKKLETQHKVLELTAENERLQKKVEQLSRELSTLRNLFKQL [CP-DN-CEBPB]
A549 lung cancer cells
  number of A549 cells: dose-dependent decrease in the number
[1]
  morphology of HIEC-6 cells: did not affect the morphology
[2]
  apoptotic death (early or late apoptotic phase): not in the control non-caner cell line
T98G cells [3]
  proportion of cells with apoptotic nuclei: increased apoptotic cell death
T98G cells [4]
  Combination Index (CI) with gamma radiation: 0.61±0.05
MDA-MB 231 cells
  cell migration into scratch (gap width): able to inhibit migration
T98G cells [5]
  cell migration into scratch (gap width): able to inhibit migration
T98G cells [6]
  CI with chloroquine: 0.56±0.06
[7]
  solubility after dilution to the concentration applied to cultured LN229 cells: maintained solubility

## RQIKIWFQNRRMKWKKLVELSAENEKLHQRVEQLTRDLAGLRQFFK [CP-DN-CEBPD]
A549 lung cancer cells
  number of A549 cells: dose-dependent decrease in the number
[1]
  morphology of HIEC-6 cells: did not affect the morphology
[2]
  apoptotic death (early or late apoptotic phase): not in the control non-caner cell line
T98G cells [3]
  proportion of cells with apoptotic nuclei: increased apoptotic cell death
T98G cells [4]
  Combination Index (CI) with gamma radiation: 0.68±0.07
MDA-MB 231 cells
  cell migration into scratch (gap width): able to inhibit migration
T98G cells [5]
  cell migration into scratch (gap width): able to inhibit migration
T98G cells [6]
  CI with chloroquine: 0.75±0.03
[7]
  solubility after dilution to the concentration applied to cultured LN229 cells: maintained solubility
